Test results: patent US20070112175A1, “Determining drug resistance” (Children's Cancer Institute Australia for Medical Research, priority 2003, published 2007)

Legend:
[1] = tested on: NIH3T3 mutant γ-actin transfectant cells; assay: Drug treatment and α-tubulin immunofluorescence of microtubules; assay type: cell-based, mouse; conditions: 10 μM, 30 min
Protocol: NIH3T3 mutant γ-actin transfectant cells were grown to ˜80% confluency in 4-well chamber slides (Nalge Nunc International, Naperville, Ill.) and treated with either 0.5% DMSO (vehicle control), 10 μM VLB, or 10 μM dEpoB, for 30 min, prior to immunostaining for total α-tubulin using standard methods. Epifluorescence imaging was performed using a Zeiss Axioscope 100 linked to a cooled CCD camera.

[2] = tested on: CEM/VLB100 cells; assay: Resistance of vinblastine-selected subline CEM/VLB100; assay type: cell-based, Human; conditions: CEM/VLB100 subline of CCRF-CEM
Source text: (§1) Human T-cell acute lymphoblastic leukaemia cells, CCRF-CEM, and drug resistant sublines, CEM/VCR R (vincristine-selected) and CEM/VLB100 (vinblastine-selected), and CEM/dEpoB 1×, CEM/dEpoB 2×, CEM/dEpoB 4×, CEM/dEpoB 10×(desoxyepothilone B-selected), were maintained in RPMI 1640 containing 10% FCS as suspension cultures. The CEM/VCRR are 22,600-fold and CEM/VLB100 are 6,667-fold resistant to vincristine and vinblastine respectively. Cells were harvested for protein analysis by centrifugation at 1500 rpm for 5 min.

[3] = tested on: NIH3T3 mutant γ-actin transfectant cells; assay: Drug resistance clonogenic assay; assay type: cell-based, mouse; conditions: P<0.05
Protocol: DNA (1 μg) was transfected into subconfluent NIH3T3 mouse fibroblast cells using the Fugene (Roche) transfection reagent according to the manufacturer's instructions. Stable transfectants were selected in 1 mgm1^−1 G418 for 16 days. Levels of γ-actin expression were determined by immunoblotting as described above.
The ability of mutant γ-actin to confer resistance to antimicrotubule agents was determined using clonogenic assays with slight modifications. NIH3T3 mutant γ-actin transfectant cells were seeded at 100 cells/well in replicate wells of a 24-well dish containing increasing concentrations of VLB. The media was replaced after 3 days with drug-free DME/10%FCS. After a further 4 days the media was removed and colonies stained with 0.1% crystal violet. The densitometric volume of each well was determined using the Quantity One software package (Biorad) and expressed relative to the respective drug-free control cells. The concentration that kills 50% of cells (ID50) and statistical analyses were then performed. The relative resistance was determined by dividing the ID50 of each γ-actin transfectant cell line with the ID50 of the empty vector cells.

[4] = tested on: CEM/VCR R cells; assay: Resistance of vincristine-selected subline CEM/VCR R; assay type: cell-based, Human; conditions: CEM/VCR R subline of CCRF-CEM
Source text: as §1

[5] = empty vector and wild type γ-actin expressing cells

C/C1=C/C[C@@H](/C(C)=C/c2csc(C)n2)OC(=O)C[C@H](O)C(C)(C)C(=O)[C@H](C)[C@@H](O)[C@@H](C)CCC1 [dEpoB, Desoxyepothilone B]
effect on cell shape and microtubule network [1, 5]: marked structural changes
effect on cell shape and microtubule network ([1]; mutant γ-actin transfectants): microtubule network remains largely intact

CC[C@]1(O)C[C@@H]2CN(CCc3c([nH]c4ccccc34)[C@@](C(=O)OC)(c3cc4c(cc3OC)N(C)[C@H]3[C@@](O)(C(=O)OC)[C@H](OC(C)=O)[C@]5(CC)C=CCN6CC[C@]43[C@@H]65)C2)C1 [vinblastine]
effect on cell shape and microtubule network [1, 5]: marked structural changes
effect on cell shape and microtubule network ([1]; mutant γ-actin transfectants): microtubule network remains largely intact
fold resistant to vinblastine [2]: 6,667 fold
relative resistance (ID50 transfectant / ID50 empty vector) ([3]; P98L γ-actin mutant vs empty vector and wildtype γ-actin cells): over 3 fold
relative resistance (ID50 transfectant / ID50 empty vector) ([3]; V103L γ-actin mutant vs empty vector and wildtype γ-actin cells): over 2 fold

CC[C@]1(O)C[C@H]2CN(CCc3c([nH]c4ccccc34)[C@@](C(=O)OC)(c3cc4c(cc3OC)N(C=O)[C@H]3[C@@](O)(C(=O)OC)[C@H](OC(C)=O)[C@]5(CC)C=CCN6CC[C@]43[C@@H]65)C2)C1 [vincristine]
fold resistant to vincristine [4]: 22,600 fold
